According to patent US6919306B2, “Method of skin care” (Yaizu Suisankagaku Industry Co. Ltd., priority 1999, dated 2005):
Marks after values point to notes of the source that are not given here.

Columns and labels:
[1] = NAG kinetics study with 14C labelled NAG; type: in vivo; details: rats, single forced oral 250 mg/kg of body weight
Description: A mixture of ^14C labelled NAG (1 st-position carbon atom-labelled product: manufactured by Amasham Life Science Co.) and unlabelled NAG (the one prepared in PREPARATION EXAMPLE 1) was given to rats by single forced oral administration (250 mg/kg of body weight) for in vivo kinetics study. […] About 60% of the administered NAG was utilized as an energy source and excreted as CO2 to expiration. Further, about 20% was excreted to urine and stool.

[2] = system: skin conditions of adult female volunteers; experiment: Questionnaire on skin conditions after tablet ingestion; type: in vivo, human; details: NAG 1.2 g per day oral tablets, 60 days
Description: 20 adult female volunteers of age ranging from 25 to 45 years old were classified into two groups i.e. a test group and a control group. They were asked to take tablets prepared similarly as in Example 1 as described below at a rate of […], twice a day (NAG ingestion amount per day: 1.2 g) together with water, provided that the tablets for the control group were prepared by using lactose as a placebo instead of NAG. The test period was 60 days, and after the completion of test, they were questioned about skin conditions and the like by questionnaires. No particular restriction was made with respect to diet, makeup and the like during the test period.

[3] = system: females having a tendency of xeroderma and rough skin; experiment: Dermatologic examination and doctor's questions, double blind long-term ingestion study; type: in vivo, human; details: for Face, Cosmetic dermatitis, average score / Face, Spread of cosmetics, average score / Whole body, Desquamation, average score / Whole body, Erosion, average score / Whole body, Flushing, average score / Whole body, Papula, average score / Whole body, Pruritus, average score / Whole body, Vesicle, average score / Face, Dessication, average score / Face, Flushing, average score / General observation, average score / Whole body, Dessication, average score: NAG 1,000 mg/day oral
Description: (§1) To 22 females usually having a tendency of xeroderma and rough skin (average age: 25.5±10.7), a double blind long-term ingestion study was carried out in the following manners provided that a […] were given to a control group.
(§2) NAG-containing tablets-administered group (NAG group, n=11): Tablets prepared similarly as in Example 1 as described below (NAG amount: 200 mg/tablet), were ingested at a rate of 5 tablets/day (NAG 1,000 mg/day, as a daily dose).
Placebo-administered group (Placebo group, n=11): Tablets prepared similarly provided that lactose was used instead of NAG, were ingested at a rate of 5 tablets/day.
(§3) The ingestion period was 8 weeks in each group. The inspection was in principle carried out just before the start of ingestion, 4 weeks after the start of ingestion, and just before the completion of ingestion (8 weeks after the start of ingestion).
In the observation of whole body, 4 ranks evaluation (0: no symptom, 1: slight, 2: medium, 3: severe) was conducted with respect to pruritus, desiccation, flushing, erosion, desquamation, papula, vesicle and tumefaction. In the observation of face, 4 ranks evaluation was similarly conducted with respect to cosmetic dermatitis, desiccation, flushing and spread of cosmetics. Further, amelioration of general symptom including the observations of the whole body and face, was evaluated as a general observation. These evaluations were conducted by a plurality of doctors designated by Japan Dermatologic Science Society. The results are shown in Table 3 (average value of each score of each group).

[4] = system: oil and fat content of skin; experiment: Skin oil and fat content by Sebumeter SM810; type: in vivo, human; details: for Oil and fat content, Below left eye: NAG 1,000 mg/day oral
Description: as §1, §2, §3
The oil and fat content was measured by using Sebumeter SM810 (manufactured by Courage+Khazaka Electronic Gmbh). In use of this apparatus, a special tape which absorbs only the oil and fat content is attached to the measurement site for 30 seconds and the oil and fat content is measured by the change of light transmittance of the tape. This apparatus is known not to be affected by humidity, etc.
(§4) Measurement sites were 1 cm below the left eye, medial part of left upper arm (3 cm above the elbow), and poll (3 cm below spinous process of neck). With respect to the oil and fat content, since most subjects were scored at 0 at the left upper arm and the poll, only the site below the left eye was measured from the 2nd inspection.
(§5) In order to keep the environments for the measurements as equal as possible, a room having its internal conditions adjusted to be constant was prepared before the measurements (room temperature: 18 to 20° C., humidity: 45 to 60%), and the subjects were asked to keep in rest in this room for at least 30 minutes. Further, with respect to the makeup at the measurement site, it was in principle prohibited to put on makeup from 60 minutes before the inspection.

[5] = system: skin surface acidity; experiment: Skin acidity (pH) by PH 900; type: in vivo, human; details: NAG 1,000 mg/day oral
Description: as §1, §2, §3
The acidity was measured by using PH 900 (manufactured by Courage+Khazaka Electronic Gmbh). In use of this apparatus, an electrode is contacted to a skin surface through an ion-permeable membrane neighboring to a glass membrane and the acidity can be measured without electrochemical invasion. In this connection, the optimum pH of female's skin is about 5.5.
as §4, §5

[6] = after 4 weeks, score 0-3, p < 0.05
[7] = after 8 weeks, score 0-3, p < 0.05

## CC(=O)N[C@H]1C(O)O[C@H](CO)[C@@H](O)[C@@H]1O (stereo partly drawn) [NAG, N-acetylglucosamine]
[1]
  absorption after oral administration: rapidly absorbed
  share excreted to urine and stool: about 20%
  time at which average concentration of radioactivity in blood reached the maximum value: 4 h
[1]; autoradiography and tissue radioactivity
  residual transferred to tissues (e.g. cartilaginous and fatty tissues): about 20%
[2]; versus placebo region
  skin-beautification effect: recognized
[2]; test region, placebo 1
  Fine wrinkles decreased (number of persons): 5
  Skin conditions worsened as a whole (number of persons): 0
[2]; test region, placebo 2
  Feel moistness in skin (number of persons): 7
  Feel tension in skin (number of persons): 6
  Skin conditions improved as a whole (number of persons): 8
[2]; test region, placebo 5
  No change (including unidentified) (number of persons): 2
[3]; after 4 weeks, score 0-3
  Face, Cosmetic dermatitis, average score: 1.00
  Face, Spread of cosmetics, average score: 1.33
  Whole body, Desquamation, average score: 1.33
  Whole body, Erosion, average score: 1.00
  Whole body, Flushing, average score: 0.80
  Whole body, Papula, average score: 1.50
  Whole body, Pruritus, average score: 0.90
  Whole body, Vesicle, average score: 2.00
[3]; after 4 weeks, score 0-3, p < 0.01
  Face, Dessication, average score: 1.18**
[3]; [6]
  Face, Flushing, average score: 1.10*
  General observation, average score: 1.27*
  Whole body, Dessication, average score: 1.36*
[3]; after 8 weeks, score 0-3
  Face, Cosmetic dermatitis, average score: 1.33
  Whole body, Desquamation, average score: 1.00
  Whole body, Erosion, average score: 0.00
  Whole body, Flushing, average score: 0.40
  Whole body, Papula, average score: 1.50
  Whole body, Pruritus, average score: 0.60
  Whole body, Vesicle, average score: 2.00
[3]; [7]
  Face, Dessication, average score: 1.00*
  Face, Flushing, average score: 1.10*
  Face, Spread of cosmetics, average score: 0.83*
  General observation, average score: 1.09*
  Whole body, Dessication, average score: 1.00*
[3]; before ingestion, score 0-3
  Face, Dessication, average score: 2.00
  Face, Flushing, average score: 1.80
  Face, Spread of cosmetics, average score: 1.83
  General observation, average score: 1.82
  Whole body, Desquamation, average score: 1.33
  Whole body, Dessication, average score: 2.09
  Whole body, Erosion, average score: 2.00
  Whole body, Flushing, average score: 1.40
  Whole body, Papula, average score: 1.00
  Whole body, Pruritus, average score: 1.40
  Whole body, Vesicle, average score: 1.00
[3]; before ingestion, score 0 no symptom to 3 severe
  Face, Cosmetic dermatitis, average score: 1.00
[3]; NAG group, 1,000 mg/day oral, 8 weeks, also significant in placebo group
  symptom of whole body: "dessication": significant improvements
[3]; NAG group, 1,000 mg/day oral, 8 weeks, placebo no significance
  symptoms of face: "dessication", "flushing" and "spread of cosmetics": significant improvements
[3]; NAG group, 1,000 mg/day oral, 8 weeks, placebo no significant improvement
  general observation: significant improvements
[4]; after 4 weeks
  Oil and fat content, Below left eye: 53.0 ± 29.2
[4]; after 8 weeks, p < 0.05
  Oil and fat content, Below left eye: 40.8 ± 18.7
[4]; before ingestion
  Oil and fat content, Below left eye: 63.8 ± 42.3
[4]; NAG group, 1,000 mg/day oral, 8 weeks
  oil and fat content, change: significant decrease
[5]; after 4 weeks
  Acidity (pH), Below left eye: 5.7 ± 0.5 pH
  Acidity (pH), Left upper arm: 5.6 ± 0.3 pH
  Acidity (pH), Poll: 5.4 ± 0.3 pH
[5]; after 8 weeks
  Acidity (pH), Below left eye: 5.8 ± 0.4 pH
  Acidity (pH), Left upper arm: 5.7 ± 0.4 pH
  Acidity (pH), Poll: 5.3 ± 0.4 pH
[5]; before ingestion
  Acidity (pH), Left upper arm: 5.5 ± 0.3 pH
  Acidity (pH), Poll: 5.7 ± 1.1 pH
[5]; before ingestion, optimum pH about 5.5
  Acidity (pH), Below left eye: 6.0 ± 1.0 pH
